In brackets after ≈: the same amount, converted by molar mass.
Experiments:
Format in all cases: functional
Klebsiella pneumoniae [1] = experiment: Antibacterial activity against ESBL positive Klebsiella pneumoniae ATCC 700603 assessed as inhibition of bacterial growth by CLSI based micro broth double dilution method
Streptococcus pneumoniae [2] = experiment: Antibacterial activity against erythromycin-sensitive Streptococcus pneumoniae ATCC 49619 assessed as inhibition of bacterial growth by CLSI based micro broth double dilution method
Escherichia coli [3] = experiment: Antibacterial activity against Escherichia coli 16-7 assessed as inhibition of bacterial growth by CLSI based micro broth double dilution method
Streptococcus pneumoniae [4] = experiment: Potency index, ratio of telithromycin MIC to test compound MIC for antibacterial activity against erythromycin-resistant Streptococcus pneumoniae 12-3 assessed as inhibition of bacterial growth by CLSI based micro broth double dilution method
[5] = system: Staphylococcus epidermidis; experiment: Antibacterial activity against methicillin-sensitive Staphylococcus epidermidis ATCC 12228 assessed as inhibition of bacterial growth by CLSI based micro broth double dilution method
Escherichia coli [6] = experiment: Antibacterial activity against ESBL-negative Escherichia coli ATCC 25922 assessed as inhibition of bacterial growth by CLSI based micro broth double dilution method
[7] = system: Staphylococcus epidermidis; experiment: Antibacterial activity against methicillin-sensitive Staphylococcus epidermidis 16-4 assessed as inhibition of bacterial growth by CLSI based micro broth double dilution method
Escherichia coli [8] = experiment: Antibacterial activity against ESBL-positive Escherichia coli ATCC 35218 assessed as inhibition of bacterial growth by CLSI based micro broth double dilution method
Pseudomonas aeruginosa [9] = experiment: Antibacterial activity against Pseudomonas aeruginosa 16-11 assessed as inhibition of bacterial growth by CLSI based micro broth double dilution method
Staphylococcus aureus [10] = experiment: Antibacterial activity against methicillin-sensitive Staphylococcus aureus 15 assessed as inhibition of bacterial growth by CLSI based micro broth double dilution method
Staphylococcus aureus [11] = experiment: Antibacterial activity against methicillin-sensitive Staphylococcus aureus ATCC 29213 assessed as inhibition of bacterial growth by CLSI based micro broth double dilution method
Streptococcus pneumoniae [12] = experiment: Antibacterial activity against erythromycin-resistant Streptococcus pneumoniae 12-3 assessed as inhibition of bacterial growth by CLSI based micro broth double dilution method
Enterococcus faecalis [13] = experiment: Antibacterial activity against vancomycin-resistant Enterococcus faecalis ATCC 51575 assessed as inhibition of bacterial growth by CLSI based micro broth double dilution method
Streptococcus pyogenes [14] = experiment: Antibacterial activity against erythromycin-resistant Streptococcus pyogenes 12-1 assessed as inhibition of bacterial growth by CLSI based micro broth double dilution method
Enterococcus faecalis [15] = experiment: Antibacterial activity against vancomycin-resistant Enterococcus faecalis ATCC 51299 assessed as inhibition of bacterial growth by CLSI based micro broth double dilution method
Pseudomonas aeruginosa [16] = experiment: Antibacterial activity against Pseudomonas aeruginosa ATCC 27853 assessed as inhibition of bacterial growth by CLSI based micro broth double dilution method
Klebsiella pneumoniae [17] = experiment: Antibacterial activity against ESBL negative Klebsiella pneumoniae 7 assessed as inhibition of bacterial growth by CLSI based micro broth double dilution method
Streptococcus pyogenes [18] = experiment: Potency index, ratio of telithromycin MIC to test compound MIC for antibacterial activity against erythromycin-resistant Streptococcus pyogenes 12-1 assessed as inhibition of bacterial growth by CLSI based micro broth double dilution method
Enterococcus faecalis [19] = experiment: Antibacterial activity against vancomycin-sensitive Enterococcus faecalis 16-6 assessed as inhibition of bacterial growth by CLSI based micro broth double dilution method
Streptococcus pyogenes [20] = experiment: Antibacterial activity against erythromycin-sensitive Streptococcus pyogenes ATCC 19615 assessed as inhibition of bacterial growth by CLSI based micro broth double dilution method
Enterococcus faecalis [21] = experiment: Antibacterial activity against vancomycin-sensitive Enterococcus faecalis […] assessed as inhibition of bacterial growth by CLSI based micro broth double dilution method
Klebsiella pneumoniae [22] = experiment: Antibacterial activity against ESBL negative Klebsiella pneumoniae 16-2 assessed as inhibition of bacterial growth by CLSI based micro broth double dilution method
Staphylococcus aureus [23] = experiment: Antibacterial activity against methicillin-sensitive Staphylococcus aureus 16-1 assessed as inhibition of bacterial growth by CLSI based micro broth double dilution method
Pseudomonas aeruginosa [24] = experiment: Antibacterial activity against Pseudomonas aeruginosa PAO1 assessed as inhibition of bacterial growth by CLSI based micro broth double dilution method

| SMILES | MIC (Klebsiella pneumoniae [1]) | MIC (Streptococcus pneumoniae [2]) | MIC (Escherichia coli [3]) | MIC [5] | MIC (Escherichia coli [6]) | MIC [7] | MIC (Escherichia coli [8]) | MIC (Pseudomonas aeruginosa [9]) | MIC (Staphylococcus aureus [10]) | MIC (Staphylococcus aureus [11]) | MIC (Streptococcus pneumoniae [12]) | MIC (Enterococcus faecalis [13]) | MIC (Streptococcus pyogenes [14]) | MIC (Enterococcus faecalis [15]) | MIC (Pseudomonas aeruginosa [16]) | MIC (Klebsiella pneumoniae [17]) | MIC (Enterococcus faecalis [19]) | MIC (Streptococcus pyogenes [20]) | MIC (Enterococcus faecalis [21]) | MIC (Klebsiella pneumoniae [22]) | further results |
| --- | --- | --- | --- | --- | --- | --- | --- | --- | --- | --- | --- | --- | --- | --- | --- | --- | --- | --- | --- | --- | --- |
| CCCCN(CCCN1C(=O)O[C@]2(C)[C@@H](CC)OC(=O)[C@@](C)(F)C(=O)[C@H](C)[C@@H](O[C@@H]3O[C@H](C)C[C@H](N(C)C)[C@H]3O)[C@@](C)(OC)C[C@@H](C)C(=O)[C@H](C)[C@@H]12)c1ccnc2ccccc12 | 32 µg/mL (≈ 36.7 µM) | ≤ 0.016 µg/mL | 32 µg/mL (≈ 36.7 µM) | 0.12 µg/mL (≈ 0.138 µM) | 32 µg/mL (≈ 36.7 µM) | 0.25 µg/mL (≈ 0.287 µM) | 32 µg/mL (≈ 36.7 µM) | 16 µg/mL (≈ 18.4 µM) | 0.06 µg/mL (≈ 0.0689 µM) | 1 µg/mL (≈ 1.15 µM) | ≤ 0.016 µg/mL | 1 µg/mL (≈ 1.15 µM) | 2 µg/mL (≈ 2.3 µM) | 1 µg/mL (≈ 1.15 µM) | 32 µg/mL (≈ 36.7 µM) | > 32 µg/mL | 2 µg/mL (≈ 2.3 µM) | 0.015 µg/mL (≈ 0.0172 µM) | 0.03 µg/mL (≈ 0.0344 µM) | > 32 µg/mL | Ratio (Streptococcus pneumoniae [4]): 4; Ratio (Streptococcus pyogenes [18]): 32; MIC (Staphylococcus aureus [23]): 0.12 µg/mL (≈ 0.138 µM); MIC (Pseudomonas aeruginosa [24]): 16 µg/mL (≈ 18.4 µM) |
| CC[C@H]1OC(=O)[C@@](C)(F)C(=O)[C@H](C)[C@@H](O[C@@H]2O[C@H](C)C[C@H](N(C)C)[C@H]2O)[C@@](C)(OC)C[C@@H](C)C(=O)[C@H](C)[C@H]2N(CCCN(Cc3ccccc3)c3ccnc4ccccc34)C(=O)O[C@]12C | > 32 µg/mL | ≤ 0.016 µg/mL | > 32 µg/mL | 0.25 µg/mL (≈ 0.276 µM) | > 32 µg/mL | 2 µg/mL (≈ 2.21 µM) | > 32 µg/mL | > 32 µg/mL | 1 µg/mL (≈ 1.1 µM) | 1 µg/mL (≈ 1.1 µM) | 0.12 µg/mL (≈ 0.133 µM) | > 32 µg/mL | 16 µg/mL (≈ 17.7 µM) | > 32 µg/mL | > 32 µg/mL | > 32 µg/mL | > 32 µg/mL | 0.25 µg/mL (≈ 0.276 µM) | 2 µg/mL (≈ 2.21 µM) | > 32 µg/mL | MIC (Staphylococcus aureus [23]): 1 µg/mL (≈ 1.1 µM); MIC (Pseudomonas aeruginosa [24]): > 32 µg/mL |
| CC[C@H]1OC(=O)[C@H](C)[C@@H](O[C@H]2C[C@@](C)(OC)[C@@H](O)[C@H](C)O2)[C@H](C)[C@@H](O[C@@H]2O[C@H](C)C[C@H](N(C)C)[C@H]2O)[C@](C)(OC)C[C@@H](C)C(=O)[C@H](C)[C@@H](O)[C@]1(C)O [CLARITHROMYCIN] | > 64 µg/mL | 0.12 µg/mL (≈ 0.16 µM) | > 64 µg/mL | 0.12 µg/mL (≈ 0.16 µM) | 32 µg/mL (≈ 42.8 µM) | 64 µg/mL (≈ 85.6 µM) | > 64 µg/mL | > 64 µg/mL | 0.25 µg/mL (≈ 0.334 µM) | 0.25 µg/mL (≈ 0.334 µM) | > 32 µg/mL | > 64 µg/mL | 64 µg/mL (≈ 85.6 µM) | > 64 µg/mL | > 64 µg/mL | > 64 µg/mL | > 64 µg/mL | 0.03 µg/mL (≈ 0.0401 µM) | 2 µg/mL (≈ 2.67 µM) | > 64 µg/mL | MIC (Staphylococcus aureus [23]): 0.25 µg/mL (≈ 0.334 µM); MIC (Pseudomonas aeruginosa [24]): > 64 µg/mL |
| CC[C@H]1OC(=O)[C@H](C)C(=O)[C@H](C)[C@@H](O[C@@H]2O[C@H](C)C[C@H](N(C)C)[C@H]2O)[C@](C)(OC)C[C@@H](C)C(=O)[C@H](C)[C@H]2N(CCCCn3cnc(-c4cccnc4)c3)C(=O)O[C@]12C [TELITHROMYCIN] | > 64 µg/mL | 0.03 µg/mL (≈ 0.0369 µM) | > 64 µg/mL | 0.25 µg/mL (≈ 0.308 µM) | 64 µg/mL (≈ 78.8 µM) | 1 µg/mL (≈ 1.23 µM) | > 64 µg/mL | > 64 µg/mL | 0.25 µg/mL (≈ 0.308 µM) | 0.25 µg/mL (≈ 0.308 µM) | 0.06 µg/mL (≈ 0.0739 µM) | 16 µg/mL (≈ 19.7 µM) | 64 µg/mL (≈ 78.8 µM) | 16 µg/mL (≈ 19.7 µM) | > 64 µg/mL | > 64 µg/mL | 16 µg/mL (≈ 19.7 µM) | 0.06 µg/mL (≈ 0.0739 µM) | 0.12 µg/mL (≈ 0.148 µM) | > 64 µg/mL | MIC (Staphylococcus aureus [23]): 0.25 µg/mL (≈ 0.308 µM); MIC (Pseudomonas aeruginosa [24]): > 64 µg/mL |
